Results on four compounds are retold here after publication PMC6225228, “Design, Synthesis and Evaluation of N-pyrazinylbenzamides as Potential Antimycobacterial Agents” (Molecules : A Journal of Synthetic Chemistry and Natural …, 2018).

Usually IC50 stands for the concentration that gives 50% inhibition. Broadly, the melting point is the temperature, or range, at which the solid turns liquid.

Structures are written as SMILES. In brackets after ≈: the same amount, converted by molar mass. Read-outs that look alike come from different tables or passages of the source.

The nature of data set [1]: Confirmatory prolonged HepG2 cytotoxicity, CellTox Green Cytotoxicity Assay. The note with it: human, HepG2 cells.
Data set [2] concerns Lichtheimia corymbifera 272. Kind of data set: Antifungal microdilution broth, LC. The format is cell-based. The note with it: read-out: MIC LC. Background: In broth dilution the organism is exposed to a series of concentrations in liquid medium.
For data set [3] the following is noted: human, HepG2 cells.
The subject of another data set is Candida krusei E28. Kind of data set: Antifungal microdilution broth, CK. The format is cell-based. The note with it: Pichia kudriavzevii, read-out: MIC CK.
In data set [4] the test system is Pseudomonas aeruginosa CCM 1961. Kind of data set: Antibacterial microdilution broth, PA. In kind it is cell-based. The note with it: Pseudomonas aeruginosa, read-out: MIC PA.
Data set [5] deals with M. avium ssp. avium CNCTC My 80/72 (ATCC 15769). Kind of data set: Antimycobacterial microdilution MABA, M. avium. In kind it is cell-based, Mycobacterium avium. To be noted: for MIC: Mycobacterium avium, ATCC15769, pH 6.6, read-out: M. avium ATCC 15769 MIC.
Data set [6] concerns Mycobacterium smegmatis CCM 4622 (ATCC 607). Kind of data set: Antimycobacterial microdilution, M. smegmatis. The format is cell-based. The note with it: Mycolicibacterium smegmatis, read-out: M. smeg. ATCC 607 MIC.
In data set [7] the test system is Staphylococcus epidermidis H 6966/08. In words: Antibacterial microdilution broth, SE. The format is cell-based. The note with it: read-out: MIC SE.
Data set [8] has as its system Escherichia coli CCM 4517. Kind of data set: Antibacterial microdilution broth, EC. The format is cell-based. The note with it: Escherichia coli, read-out: MIC EC.
The subject of data set [9] is Staphylococcus aureus H 5996/08 methicillin resistant. Kind of data set: microbe, parasite or virus in culture. In kind it is cell-based. The note with it: for MIC: Staphylococcus aureus, MRSA, read-out: MIC MRSA.
The test system of data set [10] is Mycobacterium tuberculosis H37Rv CNCTC My 331/88 (ATCC 27294). Kind of data set: Antimycobacterial microdilution MABA, M. tuberculosis. In kind it is cell-based. To be noted: for MIC: Mycobacterium tuberculosis.
Data set [11] relates to Staphylococcus aureus CCM 4516/08. In words: Antibacterial microdilution broth, SA. The format is cell-based.
Data set [12] has as its system Enterococcus sp. J 14365/08. In words: Antibacterial microdilution broth, EF. The format is cell-based. The note with it: Enterococcus, read-out: MIC EF.
The test system of a further data set is Candida tropicalis 156. Kind of data set: Antifungal microdilution broth, CT. In kind it is cell-based. The note with it: read-out: MIC CT.
Data set [13] has as its system Candida albicans ATCC 44859. In words: Antifungal microdilution broth, CA. In kind it is cell-based. The note with it: Candida albicans, read-out: MIC CA.
Another data set has as its system Trichosporon asahii 1188. In words: Antifungal microdilution broth, TA. The format is cell-based. To be noted: read-out: MIC TA.
The subject of data set [14] is Trichophyton interdigitale 445. Kind of data set: Antifungal microdilution broth, TI. The format is cell-based. To be noted: read-out: MIC TI.
Data set [15] has as its system M. kansasii CNCTC My 235/80 (ATCC 12478). In words: Antimycobacterial microdilution MABA, M. kansasii. In kind it is cell-based, Mycobacterium kansasii. The note with it: for MIC: Mycobacterium kansasii, ATCC12478, pH 6.6, read-out: M. kans. ATCC 12478 MIC, Middlebrook 7H9 with OADC, pH 6.6, MABA.
The subject of a further data set is Candida glabrata 20/I. In words: Antifungal microdilution broth, CG. In kind it is cell-based. The note with it: Nakaseomyces glabratus, 20/I, read-out: MIC CG.
The test system of data set [16] is Aspergillus fumigatus 231. In words: Antifungal microdilution broth, AF. The note with it: read-out: MIC AF. The format is cell-based.
A further data set concerns HepG2 cells. To be noted: read-out: Amide -CONH- IC50; cited from earlier work.
Data set [17] has as its system Mycobacterium tuberculosis H37Rv (Mtb). To be noted: Šula's semisynthetic medium, pH = 5.6, turbidity, cited from earlier work; for Amides MIC: first value; for Amides MIC (value in parentheses): second value in parentheses.
Where [18] appears, read: Lichtheimia corymbifera, 272, 24 h.
Setting [19] is: Lichtheimia corymbifera, 272, 48 h.
Where [20] appears, read: Staphylococcus epidermidis, H6966/08, 24 h.
Where [21] appears, read: Staphylococcus epidermidis, H6966/08, 48 h.
The mark [22] stands for this setting: read-out: Mtb H37Rv ATCC 27294 MIC, Middlebrook 7H9 with OADC growth supplement, pH = 6.6, MABA.
Where [23] appears, read: read-out: Mtb MIC, molar concentration.
[24] abbreviates: Staphylococcus aureus, CCM4516, 24 h, read-out: MIC SA, 24 h.
[25] abbreviates: Staphylococcus aureus, CCM4516, 48 h, read-out: MIC SA, 48 h.
Where [26] appears, read: Trichosporon asahii, 1188, 24 h.
[27] abbreviates: Trichosporon asahii, 1188, 48 h.
Setting [28] is: Trichophyton interdigitale, 445, 72 h.
Setting [29] is: Trichophyton interdigitale, 445, 120 h.
[30] abbreviates: Aspergillus fumigatus, 231, 24 h.
The mark [31] stands for this setting: Aspergillus fumigatus, 231, 48 h.
The mark [32] stands for this setting: Middlebrook 7H9 with OADC, pH 6.6, MABA.

Regarding `O=C(Nc1cnc(Cl)cn1)c1ccccc1O` [Compound 2b], the melting point lay in the range of 197.7 to 198.2 °C. In [1], this compound displayed an IC50 at 24 h of 545 µM and a 50% inhibitory concentration (IC50) at 48 h of 188 µM. Also, the MIC in [2] (setting [18]) came out at 62.5 µM (≈ 15.6 µg/mL). For the same compound, the MIC in [2] (setting [19]) is 125 µM (≈ 31.2 µg/mL). The same compound returned a half-inhibitory concentration (IC50) at 24 h in data set [3] of 155 µM. In addition, the MIC in the data set with Candida krusei E28 (E28, 24 h) is 125 µM (≈ 31.2 µg/mL). The MIC in the data set with Candida krusei E28 (E28, 48 h) amounted to 125 µM (≈ 31.2 µg/mL). Besides, in data set [4] (CCM1961, 72 h), the MIC was > 500 µM. In addition, the MIC in [4] (CCM1961, 120 h) was > 500 µM. The MIC in data set [5] turned out to be 50 µg/mL (≈ 200 µM). The MIC in [6] amounted to 15.6 µg/mL (≈ 62.6 µM). Moreover, the MIC in data set [7] (24 h) was 62.50 µM (≈ 15.6 µg/mL). Also, the MIC in data set [7] (48 h) is recorded as 62.50 µM (≈ 15.6 µg/mL). For the same compound, the MIC in [7] (setting [20]) amounted to 62.5 µM (≈ 15.6 µg/mL). The MIC in data set [7] (setting [21]) was determined as 62.5 µM (≈ 15.6 µg/mL). Moreover, the MIC in [8] (CCM4517, 24 h) is > 500 µM. Moreover, the MIC in [8] (CCM4517, 48 h) is > 500 µM. For the same compound, in data set [9] (24 h), the “MIC MRSA” value is 62.50 µM (≈ 15.6 µg/mL) and the MIC was 62.5 µM (≈ 15.6 µg/mL). In data set [9] (48 h), the “MIC MRSA” value is listed as 62.50 µM (≈ 15.6 µg/mL) and the MIC stood at 62.5 µM (≈ 15.6 µg/mL). The MIC in [10] (setting [22]) was 12.5 µg/mL. Besides, in [10] (setting [23]), the MIC stood at 50.1 µM. For the same compound, in data set [11] (setting [24]), the MIC amounted to 15.6 µM (≈ 3.9 µg/mL). Moreover, the MIC in data set [11] (setting [25]) worked out at 15.6 µM (≈ 3.9 µg/mL). Further, the MIC in data set [12] (SP.J14365/08, 24 h) was > 500 µM. Further, in data set [12] (SP.J14365/08, 48 h), the MIC was > 500 µM. The MIC with Candida tropicalis 156 (Candida tropicalis, 156, 24 h) is 125 µM (≈ 31.2 µg/mL). For the same compound, in the data set with Candida tropicalis 156 (Candida tropicalis, 156, 48 h), the MIC is 125 µM (≈ 31.2 µg/mL). Besides, in data set [13] (ATCC44859, 24 h), the MIC is 62.5 µM (≈ 15.6 µg/mL). Further, in [13] (ATCC44859, 48 h), the MIC was determined as 62.5 µM (≈ 15.6 µg/mL). Besides, the MIC with Trichosporon asahii 1188 (setting [26]) worked out at 62.5 µM (≈ 15.6 µg/mL). Besides, the MIC in the data set with Trichosporon asahii 1188 (setting [27]) was 125 µM (≈ 31.2 µg/mL). Besides, the MIC in data set [14] (setting [28]) came out at 125 µM (≈ 31.2 µg/mL). Moreover, the MIC in data set [14] (setting [29]) was 125 µM (≈ 31.2 µg/mL). The MIC in data set [15] came out at 50 µg/mL (≈ 200 µM). Also, the MIC with Candida glabrata 20/I (24 h) came out at 125 µM (≈ 31.2 µg/mL). The MIC in the data set with Candida glabrata 20/I (48 h) came out at 125 µM (≈ 31.2 µg/mL). Besides, in [16] (setting [30]), the MIC turned out to be 125 µM (≈ 31.2 µg/mL). Further, the MIC in [16] (setting [31]) was determined as 125 µM (≈ 31.2 µg/mL).
Consider `CCc1ccc(C(=O)Nc2cnc(Cl)cn2)cc1` [Compound 2i], for which the half-maximal inhibitory concentration (IC50) at 24 h is 264 µM in [1] and > 250 µM in data set [3]. In addition, in [1], the IC50 at 48 h turned out to be 250 µM. In addition, the MIC in data set [2] (setting [18]) is > 125 µM; in data set [2] (setting [19]) it was > 125 µM; in the data set on Candida krusei E28 (E28, 24 h) it was > 125 µM; with Candida krusei E28 (E28, 48 h) it was > 125 µM; in data set [4] (CCM1961, 72 h) it was > 125 µM; in data set [4] (CCM1961, 120 h), > 125 µM. In addition, the MIC in [5] was > 100 µg/mL; in data set [6], ≥ 500 µg/mL; in data set [7] (setting [20]), > 125 µM; in data set [7] (setting [21]), > 125 µM; in data set [8] (CCM4517, 24 h) it was > 125 µM; in data set [8] (CCM4517, 48 h), > 125 µM. Besides, the MIC in [9] (24 h) is > 125 µM; in data set [9] (48 h), > 125 µM; in data set [10] (setting [22]) it was 3.13 to 6.25 µg/mL; in data set [10] (setting [23]), 12 µM; in [11] (24 h, read-out: MIC SA) it was >125 µM; in data set [11] (setting [24]) it was > 125 µM. In addition, the MIC in data set [11] (setting [25]) was > 125 µM; in data set [12] (SP.J14365/08, 24 h), > 125 µM; in data set [12] (SP.J14365/08, 48 h) it was > 125 µM; in the data set with Candida tropicalis 156 (Candida tropicalis, 156, 24 h), > 125 µM; in the data set with Candida tropicalis 156 (Candida tropicalis, 156, 48 h) it was > 125 µM; in [13] (ATCC44859, 24 h), > 125 µM. The MIC in [13] (ATCC44859, 48 h) was > 125 µM; in the data set on Trichosporon asahii 1188 (setting [26]), > 125 µM; in the data set with Trichosporon asahii 1188 (setting [27]) it was > 125 µM; in [14] (setting [28]) it was > 125 µM; in data set [14] (setting [29]) it was > 125 µM; in [15] it was > 100 µg/mL. Besides, the MIC (in the data set with Candida glabrata 20/I (24 h); with Candida glabrata 20/I (48 h); in data set [16] (setting [30]); in data set [16] (setting [31])) was > 125 µM each time. For the same compound, the “M. avium ATCC 15769 MIC” value in data set [5] (setting [32]) is >100 µg/mL. Further, in data set [10] (Middlebrook 7H9 with OADC growth supplement, pH = 6.6, MABA), the “Mtb H37Rv ATCC 27294 MIC” value turned out to be 3.13 µg/mL. The “M. kans. ATCC 12478 MIC” value in [15] (setting [32]) is >100 µg/mL.
On to `O=C(Nc1ccccc1O)c1cnc(Cl)cn1` [Amide R1=5-Cl R2=2-OH], for which the IC50 in the data set with HepG2 cells was 30 µM. In [17], the “Amides MIC” value was 3.13 µg/mL and the “Amides MIC (value in parentheses)” value was 0.78 µg/mL.
With `CCc1ccc(NC(=O)c2cnc(Cl)cn2)cc1` [Amide R1=5-Cl R2=4-Et], the half-inhibitory concentration (IC50) with HepG2 cells is 7.2 µM. For the same compound, in data set [17], the “Amides MIC” value is 1.56 µg/mL and the “Amides MIC (value in parentheses)” value was 0.78 µg/mL.
